In brackets after ≈: the same amount, converted by molar mass. Where two headings read alike, the source gives them in different places.
Assays:
[1] = system: Mycobacterium smegmatis strain ATCC19420; assay: In vitro efficacy test using Mycobacterium smegmatis strain ATCC19420 (MIC); format: cell-based; details: Mycolicibacterium smegmatis, ATCC19420, 72 h, CA-MHB + 0.02% Tween 80, 30° C., read after 72 hours
[2] = system: M. tuberculosis H37Rv; assay: In vitro efficacy test using the H37Rv strain, Microplate Alamar Blue Assay (MABA) MIC; format: cell-based, Mycobacterium tuberculosis; details: for MIC: Mycobacterium tuberculosis, H37RV
[3] = system: M. tuberculosis H37R; assay: microbe, parasite or virus in culture; format: cell-based, Mycobacterium tuberculosis; details: Mycobacterium tuberculosis, H37R; read-out: M. tuberculosis H37R LORA (MIC)
[4] = system: Vero Cell; assay: Vero cell cytotoxicity (IC50); format: cell-based; details: Chlorocebus sabaeus, Vero, African green monkey kidney cells
[5] = Hela cell cytotoxicity (CC50); details: human, HeLa cells (human cervical cancer cells), CC50_Hela, half of the toxic concentration
[6] = aerobic, 7H9 medium, Alamar Blue, read-out: M. tuberculosis H37Rv MABA (MIC)
[7] = wild-type H37Rv strain, two values per compound, read-out: MABA MIC vs. H37Rv

Structure (SMILES) | MIC [1] [µg/mL] | MIC [2, 6] [µg/mL] | MIC [3] [µg/mL] | IC50 [4] [µg/mL] | CC50 [5] [µg/mL] | inhibitory activity against M. tuberculosis H37Rv, aerobic (MABA) (in words) [2] | MIC [2, 7] [µM] | MABA MIC vs. H37Rv ([2]; wild-type H37Rv strain, two values per compound) [µM]
COc1ncc(-c2ccc(F)cc2)cc1C(c1ccccc1)C(O)(CCN(C)C)c1cccc2ccccc12 (centres unmarked) [Compound 91, 4-(dimethylamino)-1-(5-(4-fluorophenyl)-2-methoxypyridin-3-yl)-2-(naphthalen-1-yl)-1-phenylbutan-2-ol] | 0.0312 | 0.34 | 0.71 (≈ 1.36 µM) | > 50 | > 64 |  |  | 
COc1ncc(-c2ccccc2Cl)cc1C(c1ccccc1)C(O)(CCN(C)C)c1cccc2ccccc12 (centres unmarked) [Compound 107] | 0.5 | 1.17 | 3.03 (≈ 5.64 µM) | > 50 | > 64 |  |  | 
COc1ncc(-c2ccc(Cl)cc2)cc1C(c1ccccc1)C(O)(CCN(C)C)c1cccc2ccccc12 (centres unmarked) [Compound 115, 1-(5-(4-chlorophenyl)-2-methoxypyridin-3-yl)-4-(dimethylamino)-2-(naphthalen-1-yl)-1-phenylbutan-2-ol] | 0.0156 | 0.08 | 0.56 (≈ 1.04 µM) | > 50 | > 64 | comparable to that of the marketed anti-TB drug, Bedaquiline | 0.06 | 
COc1ncc(-c2ccccc2Br)cc1C(c1ccccc1)C(O)(CCN(C)C)c1cccc2ccccc12 (centres unmarked) [Compound 125, 1-(5-(2-bromophenyl)-2-methoxypyridin-3-yl)-4-(dimethylamino)-2-(naphthalen-1-yl)-1-phenylbutan-2-ol] | 0.5 | 1.84 | 1.89 (≈ 3.25 µM) | > 32 | > 64 |  |  | 
COc1ncc(-c2cccc(Br)c2)cc1C(c1ccccc1)C(O)(CCN(C)C)c1cccc2ccccc12 (centres unmarked) [Compound 129, 1-(5-(3-bromophenyl)-2-methoxypyridin-3-yl)-4-(dimethylamino)-2-(naphthalen-1-yl)-1-phenylbutan-2-ol] | 0.5 | 1.88 | 2.57 (≈ 4.42 µM) | > 32 | > 64 |  |  | 
COc1ncc(-c2ccc(Br)cc2)cc1C(c1ccccc1)C(O)(CCN(C)C)c1cccc2ccccc12 (centres unmarked) [Compound 133, 1-(5-(4-bromophenyl)-2-methoxypyridin-3-yl)-4-(dimethylamino)-2-(naphthalen-1-yl)-1-phenylbutan-2-ol] | 0.0156 | 0.22 | 0.22 (≈ 0.378 µM) | > 32 | > 64 | comparable to that of the marketed anti-TB drug, Bedaquiline | 0.12 | 0.10
COc1ncc(-c2ccsc2)cc1C(c1ccccc1)C(O)(CCN(C)C)c1cccc2ccccc12 (centres unmarked) [Compound 136, 4-(dimethylamino)-1-(2-methoxy-5-(thiophen-3-yl)pyridin-3-yl)-2-(naphthalen-1-yl)-1-phenylbutan-2-ol] | 0.0312 | 0.35 | 0.79 (≈ 1.55 µM) | > 50 | > 64 |  |  | 
COc1ncc(-c2cccs2)cc1C(c1ccccc1)C(O)(CCN(C)C)c1cccc2ccccc12 (centres unmarked) [Compound 141, 4-(dimethylamino)-1-(2-methoxy-5-(thiophen-2-yl)pyridin-3-yl)-2-(naphthalen-1-yl)-1-phenylbutan-2-ol] | ≤ 0.0625 | 0.93 | 1.44 (≈ 2.83 µM) | 24.4 (≈ 47.9 µM) | > 64 |  |  | 
COc1ncc(-c2ccsn2)cc1C(c1ccccc1)C(O)(CCN(C)C)c1cccc2ccccc12 (centres unmarked) [Compound 145, 4-(dimethylamino)-1-(5-(isothiazol-3-yl)-2-methoxypyridin-3-yl)-2-(naphthalen-1-yl)-1-phenylbutan-2-ol] | 0.0625 | 0.97 | 1.57 (≈ 3.08 µM) | 25.1 (≈ 49.2 µM) | 12.7 (≈ 24.8 µM) |  |  | 
COc1ncc(-c2cccc(C#N)c2)cc1C(c1ccccc1)C(O)(CCN(C)C)c1cccc2ccccc12 (centres unmarked) [Compound 153, 3-(5-(4-(dimethylamino)-2-hydroxyl-2-(naphthalen-1-yl)-1-phenylbutyl)-6-methoxypyridin-3-yl)-benzonitrile] | 0.25 | 0.96 | 2.54 (≈ 4.81 µM) | > 32 | > 64 |  |  | 
COc1ncc(-c2ccc(C#N)cc2)cc1C(c1ccccc1)C(O)(CCN(C)C)c1cccc2ccccc12 (centres unmarked) [Compound 157, 4-(5-(4-(dimethylamino)-2-hydroxyl-2-(naphthalen-1-yl)-1-phenylbutyl)-6-methoxypyridin-3-yl)-benzonitrile] | 0.0312 | 0.44 | 0.77 (≈ 1.46 µM) | > 32 | > 64 |  |  | 
COc1ncc(-c2cscn2)cc1C(c1ccccc1)C(O)(CCN(C)C)c1cccc2ccccc12 (centres unmarked) [Compound 161, 4-(dimethylamino)-1-(2-methoxy-5-(thiazol-4-yl)pyridin-3-yl)-2-(naphthalen-1-yl)-1-phenylbutan-2-ol] | 0.125 | 1.6 | 4.24 (≈ 8.32 µM) | 25.1 (≈ 49.1 µM) | 14.4 (≈ 28.3 µM) |  |  | 
COc1ncc(-c2cnsc2)cc1C(c1ccccc1)C(O)(CCN(C)C)c1cccc2ccccc12 (centres unmarked) [Compound 165, 4-(dimethylamino)-1-(5-(isothiazol-4-yl)-2-methoxypyridin-3-yl)-2-(naphthalen-1-yl)-1-phenylbutan-2-ol] | 0.25 | 1.98 | 3.94 (≈ 7.73 µM) | 26.3 (≈ 51.6 µM) | 28.8 (≈ 56.5 µM) |  |  | 
COc1ncc(-c2nccs2)cc1C(c1ccccc1)C(O)(CCN(C)C)c1cccc2ccccc12 (centres unmarked) [Compound 169, 4-(dimethylamino)-1-(2-methoxy-5-(thiazol-2-yl)pyridin-3-yl)-2-(naphthalen-1-yl)-1-phenylbutan-2-ol] | 0.25 | 1.73 | 4.95 (≈ 9.71 µM) | 25.9 (≈ 50.7 µM) | 19.3 (≈ 37.8 µM) |  |  | 
COc1ncc(-c2cncs2)cc1C(c1ccccc1)C(O)(CCN(C)C)c1cccc2ccccc12 (centres unmarked) [Compound 171, 4-(dimethylamino)-1-(2-methoxy-5-(thiazol-5-yl)pyridin-3-yl)-2-(naphthalen-1-yl)-1-phenylbutan-2-ol] | 0.125 | 1.7 | 2.86 (≈ 5.61 µM) | 25.4 (≈ 49.7 µM) | 14.3 (≈ 28.2 µM) |  |  | 
COc1ncc(C(C)C)cc1C(c1ccccc1)C(O)(CCN(C)C)c1cccc2ccccc12 (centres unmarked) [Compound 175, 4-(dimethylamino)-1-(5-isopropyl-2-methoxypyridin-3-yl)-2-(naphthalen-1-yl)-1-phenylbutan-2-ol] | 0.25 | 1.42 | 2.83 (≈ 6.04 µM) | > 50 | 27.6 (≈ 59 µM) |  |  | 
COc1ncc(C(C)(C)C)cc1C(c1ccccc1)C(O)(CCN(C)C)c1cccc2ccccc12 (centres unmarked) [Compound 177, 1-(5-tert-butyl-2-methoxypyridin-3-yl)-4-dimethylamino-2-(naphthalen-1-yl)-1-phenylbutan-2-ol] | 0.125 | 1.74 | 1.81 (≈ 3.75 µM) | 27.6 (≈ 57.2 µM) | > 64 |  |  | 
COc1ncc(-c2ccoc2)cc1C(c1ccccc1)C(O)(CCN(C)C)c1cccc2ccccc12 (centres unmarked) [Compound 178, 4-(dimethylamino)-1-(5-(furan-3-yl)-2-methoxypyridin-3-yl)-2-(naphthalen-1-yl)-1-phenylbutan-2-ol] | 0.0312 | 0.78 | 0.88 (≈ 1.79 µM) | 25.5 (≈ 51.8 µM) | 25.8 (≈ 52.3 µM) |  |  | 
COc1ncc(-c2ccco2)cc1C(c1ccccc1)C(O)(CCN(C)C)c1cccc2ccccc12 (centres unmarked) [Compound 183, 4-(dimethylamino)-1-(5-(furan-2-yl)-2-methoxypyridin-3-yl)-2-(naphthalen-1-yl)-1-phenylbutan-2-ol] | ≤ 0.0625 | 0.5 | 1.33 (≈ 2.7 µM) | 24.5 (≈ 49.8 µM) | > 64 |  |  | 
COc1cccc(C(c2cc(-c3ccccc3)cnc2OC)C(O)(CCN(C)C)c2cc(F)cc(F)c2)c1OC (centres unmarked) [Compound 207, 2-(3,5-difluorophenyl)-1-(2,3-dimethoxyphenyl)-4-(dimethylamino)-1-(2-methoxy-5-phenylpyridin-3-yl)butan-2-ol] | ≤ 0.0625 | 0.96 | 0.99 (≈ 1.8 µM) | 25.7 (≈ 46.8 µM) | 10.3 (≈ 18.7 µM) |  |  | 
COc1cccc(C(c2cc(-c3ccccc3)cnc2OC)C(O)(CCN(C)C)c2cccc(Cl)c2)c1OC (centres unmarked) [Compound 209, 2-(3-chlorophenyl)-1-(2,3-dimethoxyphenyl)-4-(dimethylamino)-1-(2-methoxy-5-phenylpyridin-3-yl)butan-2-ol] | 0.0312 | 0.89 | 0.84 (≈ 1.54 µM) | 27.3 (≈ 49.9 µM) | 13.3 (≈ 24.3 µM) |  |  | 
COc1cccc(C(c2cc(-c3ccccc3)cnc2OC)C(O)(CCN(C)C)c2cc(Cl)cc(Cl)c2)c1OC (centres unmarked) [Compound 213, 2-(3,5-dichlorophenyl)-1-(2,3-dimethoxyphenyl)-4-(dimethylamino)-1-(2-methoxy-5-phenylpyridin-3-yl)butan-2-ol] | ≤ 0.0625 | 0.125 | 0.46 (≈ 0.791 µM) | 25.2 (≈ 43.3 µM) | > 64 |  |  | 
CCOc1ncc(-c2ccccc2)cc1C(c1ccccc1)C(O)(CCN(C)C)c1cccc2ccccc12 (centres unmarked) [Compound 217, 4-(dimethylamino)-1-(2-ethoxy-5-phenylpyridin-3-yl)-2-(naphthalen-1-yl)-1-phenylbutan-2-ol] | ≤ 0.0625 | 0.41 | 1.66 (≈ 3.21 µM) | > 32 | > 64 |  |  | 
COc1cccc(C(c2cc(-c3ccccc3)cnc2OC)C(O)(CCN(C)C)c2ccccc2)c1F (centres unmarked) [Compound 226, 4-(dimethylamino)-1-(2-fluoro-3-methoxyphenyl)-1-(2-methoxy-5-phenylpyridin-3-yl)-2-phenylbutan-2-ol] | 0.125 | 0.44 | 0.97 (≈ 1.94 µM) | 25.5 (≈ 50.9 µM) | 13.1 (≈ 26.2 µM) |  |  | 
